The values that follow come from PMC10610214 (Pharmaceuticals, 2023).

By IC50 is commonly meant the concentration at which inhibition is half-maximal.

Molecules are shown by their SMILES. A value given as a limit tells only on which side of the number the result lay.

The test system of one series is H2O2-induced PC12 cells. Description: Neuroprotection against H2O2-induced PC12 cell injury (MTT). The class given is cell-based. As to conditions: H2O2 250 μM, mean ± SEM. The procedure:
Neuroprotection assay is similar to cytotoxicity. Oxidative cellular damage caused by H2O2 has become one of the important methods to study oxidative damage in neural cells. PC12 cells were seeded into a 96-well plate at a density of 5.0 × 10^3 cells per well. After the cells were incubated overnight, the old medium was discarded. […] After incubating overnight, 20 μL of MTT solution (5 mg/mL, Sigma-Aldrich) was added per well, and the cells were incubated for an additional 4 h. Afterwards, the supernatant was removed and 150 μL of DMSO was added. The 96-well plate was placed on the shaker for 10–15 min, and then the absorbance at 492 nm was measured by a microplate reader.

A further series concerns PC12 cells. Description: Cytotoxicity in PC12 cells (MTT). Type of series: cell-based. The method, then:
The cytotoxicity and neuroprotective effects of the compounds on PC12 cells were evaluated by MTT assay. PC12 cells were seeded into a 96-well plate at a density of 5.0 × 10^3 cells per well. After the cells were incubated overnight, the old medium was discarded. The cells were incubated for another 24 h with fresh medium containing compounds at a concentration of 30 or 50 μM. A total of 20 μL of MTT solution (5 mg/mL, Sigma-Aldrich, Shanghai, China) was then added per well, and the cells were incubated for an additional 4 h. Afterwards, the supernatant was removed and 150 μL of DMSO was added to solubilize formazan crystals. The 96-well plate was placed on the shaker for 10–15 min, and then the absorbance at 492 nm was measured by a microplate reader.

A further series has as its target T1, AChE (from electric eel) (Electrophorus electricus, UniProt O42275).
T1 construct: AChE (from electric eel); purchased Sigma Chemical Company (St. Louis, MO, USA)
Description: biochemical. The settings on record: for IC50: AChE from electric eel, mean ± SD of three experiments, read-out: AChE Inhibition (IC50). The procedure: (§1) The ChE inhibitory activity of the test compounds was determined using the modified Ellman’s method. The compounds were dissolved in DMSO (10 mmol/L) and then diluted with PB (phosphate buffer) solution to attain a range of final concentrations. […] Briefly, 100 μL of different concentrations of the test or standard compounds and 100 μL of AChE/BuChE (0.5 U/mL) were added into 48-well plates and then co-incubated at 37 °C for 30 min. […] All concentrations mentioned are final.

The target in series [1] is T2, BuChE (from equine serum) (Equus caballus, UniProt P81908).
T2 construct: BuChE (from equine serum); purchased Sigma Chemical Company (St. Louis, MO, USA); host or cells: equine serum
T2 sequence (P81908 whole entry): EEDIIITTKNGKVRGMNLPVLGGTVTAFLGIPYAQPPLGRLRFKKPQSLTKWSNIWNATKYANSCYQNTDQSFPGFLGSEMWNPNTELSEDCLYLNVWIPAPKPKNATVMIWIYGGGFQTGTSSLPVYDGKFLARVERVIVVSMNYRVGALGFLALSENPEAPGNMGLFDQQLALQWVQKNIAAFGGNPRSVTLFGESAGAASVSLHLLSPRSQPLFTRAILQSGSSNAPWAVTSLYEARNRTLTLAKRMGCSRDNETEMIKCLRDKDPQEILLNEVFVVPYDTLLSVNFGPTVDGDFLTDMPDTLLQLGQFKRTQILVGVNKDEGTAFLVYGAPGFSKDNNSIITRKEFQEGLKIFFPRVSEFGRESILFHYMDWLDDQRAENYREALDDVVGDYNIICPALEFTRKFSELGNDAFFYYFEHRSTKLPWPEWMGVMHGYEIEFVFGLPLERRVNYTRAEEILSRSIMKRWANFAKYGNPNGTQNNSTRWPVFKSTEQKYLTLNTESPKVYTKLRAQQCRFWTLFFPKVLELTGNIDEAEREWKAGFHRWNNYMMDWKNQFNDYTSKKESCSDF
Description: biochemical. The settings on record: mean ± SD of three experiments, read-out: BuChE Inhibition (IC50). The procedure: as §1

T1 sequence (O42275 24-633): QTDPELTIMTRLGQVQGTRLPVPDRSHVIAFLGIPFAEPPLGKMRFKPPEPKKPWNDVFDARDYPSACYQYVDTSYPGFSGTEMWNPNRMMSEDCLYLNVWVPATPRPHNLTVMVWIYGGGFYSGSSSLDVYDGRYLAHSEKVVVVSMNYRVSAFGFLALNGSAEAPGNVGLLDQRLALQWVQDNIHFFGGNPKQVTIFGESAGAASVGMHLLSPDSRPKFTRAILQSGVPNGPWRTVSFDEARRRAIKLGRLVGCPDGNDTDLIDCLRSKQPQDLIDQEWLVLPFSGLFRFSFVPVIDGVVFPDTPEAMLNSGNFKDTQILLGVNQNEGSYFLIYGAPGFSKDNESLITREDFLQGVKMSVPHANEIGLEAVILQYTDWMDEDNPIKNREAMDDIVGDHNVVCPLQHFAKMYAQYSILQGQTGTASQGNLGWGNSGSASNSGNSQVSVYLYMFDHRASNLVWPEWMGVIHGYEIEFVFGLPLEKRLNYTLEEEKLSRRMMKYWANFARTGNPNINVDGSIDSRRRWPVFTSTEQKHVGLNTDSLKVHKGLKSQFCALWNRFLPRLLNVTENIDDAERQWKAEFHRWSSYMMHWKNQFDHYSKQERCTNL

For the molecule `O=C1c2ccccc2-n2c1nc1ccc(NS(=O)(=O)c3ccccc3OC(F)(F)F)cc1c2=O` [8n], the “H2O2-Induced PC12 Cell Viability (% of Control)” value with H2O2-induced PC12 cells (compound 10 μM) is recorded as 38.94 ± 1.5 % of Control; with H2O2-induced PC12 cells (compound 30 μM), 49.96 ± 0.8 % of Control. The figures for the “Cell Viability (% of Control)” value with PC12 cells (compound 30 μM) and in the series on PC12 cells (compound 50 μM) were 99.2 ± 1.9 % of Control and 98.3 ± 2.7 % of Control, respectively. Further, the IC50 on AChE (from electric eel) was 42 ± 1.7 µM; in series [1], greater than 50 µM.

Consider `CC(C)(C)c1ccc(S(=O)(=O)Nc2ccc3nc4n(c(=O)c3c2)-c2ccccc2C4=O)cc1` [8c], for which the “H2O2-Induced PC12 Cell Viability (% of Control)” value is 39.10 ± 4.5 % of Control in the series on H2O2-induced PC12 cells (compound 10 μM) and 49.64 ± 4.1 % of Control in the series with H2O2-induced PC12 cells (compound 30 μM). Also, the “Cell Viability (% of Control)” value is recorded as 98.4 ± 1.9 % of Control in the series with PC12 cells (compound 30 μM) and 96.7 ± 1.9 % of Control with PC12 cells (compound 50 μM). Besides, the IC50 on AChE (from electric eel) is 15.8 ± 2.6 µM; in series [1], greater than 50 µM.

Take `O=C1c2ccccc2-n2c1nc1ccc(NS(=O)(=O)c3ccccc3)cc1c2=O` [8a]: the “H2O2-Induced PC12 Cell Viability (% of Control)” value is listed as 39.65 ± 3.1 % of Control in the series with H2O2-induced PC12 cells (compound 10 μM) and 50.98 ± 1.8 % of Control in the series on H2O2-induced PC12 cells (compound 30 μM). Moreover, the “Cell Viability (% of Control)” value with PC12 cells (compound 30 μM) is listed as 100.1 ± 1.5 % of Control; in the series on PC12 cells (compound 50 μM), 99.8 ± 1.7 % of Control. Besides, the IC50 is 14 ± 1.67 µM on AChE (from electric eel) and greater than 50 µM in series [1].

As to `Cc1ccc(S(=O)(=O)Nc2ccc3c(c2)C(=O)c2nc4ccccc4c(=O)n2-3)cc1` [4b], the “H2O2-Induced PC12 Cell Viability (% of Control)” value with H2O2-induced PC12 cells (compound 10 μM) is on record as 47.36 ± 1.7 % of Control; with H2O2-induced PC12 cells (compound 30 μM) it was 59.09 ± 2.5 % of Control. In addition, the “Cell Viability (% of Control)” value is listed as 99.7 ± 0.9 % of Control in the series on PC12 cells (compound 30 μM) and 99.5 ± 1.5 % of Control in the series with PC12 cells (compound 50 μM). The IC50 on AChE (from electric eel) stood at 5.75 ± 0.27 µM; in series [1] it was 8.61 ± 1.2 µM. Further, the “Selective Index, IC50 (BChE)/IC50 (AChE)” value at AChE (from electric eel) (AChE selectivity index) was 1.5.

As for `O=C1c2ccccc2-n2c1nc1ccc(NS(=O)(=O)c3ccc(Br)cc3)cc1c2=O` [8e], the “H2O2-Induced PC12 Cell Viability (% of Control)” value in the series with H2O2-induced PC12 cells (compound 10 μM) is given as 41.78 ± 1.2 % of Control; in the series with H2O2-induced PC12 cells (compound 30 μM) it was 55.86 ± 0.9 % of Control. Further, the “Cell Viability (% of Control)” value is on record as 99.8 ± 0.7 % of Control in the series on PC12 cells (compound 30 μM) and 99.7 ± 3.1 % of Control in the series on PC12 cells (compound 50 μM). The IC50 (on AChE (from electric eel); in series [1]) was greater than 50 µM each time.

With `O=C1c2ccccc2-n2c1nc1ccc(NS(=O)(=O)c3cccc(F)c3)cc1c2=O` [8g], the “H2O2-Induced PC12 Cell Viability (% of Control)” value in the series on H2O2-induced PC12 cells (compound 10 μM) is listed as 44.37 ± 0.5 % of Control; in the series with H2O2-induced PC12 cells (compound 30 μM), 52.28 ± 2.3 % of Control. Moreover, the “Cell Viability (% of Control)” value in the series on PC12 cells (compound 30 μM) was 99.6 ± 1.2 % of Control; in the series with PC12 cells (compound 50 μM), 99.5 ± 2.7 % of Control. The IC50 (at AChE (from electric eel); in series [1]) was greater than 50 µM in each case.

In the case of `COc1ccc(S(=O)(=O)Nc2ccc3c(c2)C(=O)c2nc4ccccc4c(=O)n2-3)c(OC)c1` [4l], the “H2O2-Induced PC12 Cell Viability (% of Control)” value with H2O2-induced PC12 cells (compound 10 μM) is 36.35 ± 1.6 % of Control; in the series on H2O2-induced PC12 cells (compound 30 μM) it was 39.84 ± 2.8 % of Control. Moreover, the “Cell Viability (% of Control)” value with PC12 cells (compound 30 μM) is reported as 100.2 ± 3.1 % of Control; in the series on PC12 cells (compound 50 μM), 99.8 ± 2.7 % of Control. In addition, the IC50 on AChE (from electric eel) is 18.6 ± 1.77 µM; in series [1] it was greater than 50 µM.

As to `CC(C)c1cc(C(C)C)c(S(=O)(=O)Nc2ccc3nc4n(c(=O)c3c2)-c2ccccc2C4=O)c(C(C)C)c1` [8d], the results for the “H2O2-Induced PC12 Cell Viability (% of Control)” value in the series with H2O2-induced PC12 cells (compound 10 μM) and in the series on H2O2-induced PC12 cells (compound 30 μM) were 39.65 ± 5.2 % of Control and 53.26 ± 1.4 % of Control, respectively. Further, the “Cell Viability (% of Control)” value with PC12 cells (compound 30 μM) is listed as 99.8 ± 0.7 % of Control; in the series on PC12 cells (compound 50 μM), 98.7 ± 2.6 % of Control. Besides, the IC50 (at AChE (from electric eel); in series [1]) was greater than 50 µM throughout.
